Source: ChEMBL document CHEMBL5050859, “Gpx4 inhibitors, pharmaceutical compositions thereof, and their use for treating gpx4-mediated diseases” (2021)
pEC50: −log10 of the molar value.

System: Huh-7
Assay: Antiproliferative activity against human Huh-7 cells after 24 hrs by Cell Titer Glo assay
Type: functional, cell-based
Settings: Huh-7, 24 h

pEC50	Structure (SMILES)
5.70	C#CC(=O)N(c1cccc(NC(C)=O)c1)C(C(=O)NCc1ccccc1)c1cccc(N)c1 (stereo not given)
7.00	C#CC(=O)N(c1ccc2ncsc2c1)C(C(=O)NCc1ccccc1)c1ccccc1 (stereo not given)
< 5.00	C#CC(=O)N(c1ccc(NS(C)(=O)=O)cc1)C(C(=O)NC(C)(C)C)c1ccc(N)cc1 (stereo not given)
7.00	C#CC(=O)N(c1cccc(Cl)c1)C1(C(=O)NCC(=O)NCc2ccccc2O)CCOCC1
7.00	C#CC(=O)N(CCc1ccccc1)C1(C(=O)NCc2ccccc2)CCCC(C(=O)OC)C1 (stereo not given)
< 5.00	CC(=O)N(c1ccc2c(cnn2C)c1)C1(C(=O)NCc2ccccc2)CCCOC1 (stereo not given)
≥ 7.00	C#CC(=O)N(c1ccc2c(ccn2C)c1)C1(C(=O)NCc2ccccc2)CCOCC1
< 5.00	Cn1ncc2cc(N(C(=O)CCBr)C3(C(=O)NCc4ccccc4)CCOCC3)ccc21
< 5.00	C#CC(=O)N(c1ccc(S(N)(=O)=O)cc1)C(C(=O)NC(C)(C)C)c1ccc(N)cc1 (stereo not given)
5.70	C#CC(=O)N(c1ccn(C)c(=O)c1)C(C(=O)NCc1ccccc1)c1ccccc1 (stereo not given)
7.00	C#CC(=O)N(c1ccc(Cl)cc1)C(C(=O)NC(C)(C)C)c1ccc(N)cc1 (stereo not given)
5.70	C#CC(=O)N(c1ccc(NC(C)=O)cc1)C(C(=O)NC(C)(C)C)c1cccc(N)c1 (stereo not given)
6.30	C#CC(=O)N(c1ccc2ncn(C)c2c1)C1(C(=O)NCc2ccccc2)CCOCC1
≥ 7.00	C#CC(=O)N(c1cccc(Cl)c1)C1(C(=O)NCc2ccccc2)CCCC(C(=O)OC)C1 (stereo not given)
7.00	C#CC(=O)N(c1cccc(Cl)c1)C1(C(=O)NCC(=O)NCc2ccccc2)CCOCC1
6.30	C#CC(=O)N(c1ccn2cnnc2c1)C1(C(=O)NCc2ccccc2)CCOCC1
5.70	C#CC(=O)N(c1cccc(NS(C)(=O)=O)c1)C(C(=O)NCc1ccccc1)c1cccc(N)c1 (stereo not given)
≥ 7.00	C#CC(=O)N(c1cccc(Cl)c1)C1(C(=O)NCc2ccccc2)CCCCC1
≥ 7.00	C#CC(=O)N(c1cccc(Cl)c1)C(C(=O)NCc1ccccc1)c1ccccc1 (stereo not given)
< 5.00	CC#CC(=O)N(c1cccc(Cl)c1)C(C(=O)NCc1ccccc1)c1ccccc1 (stereo not given)
7.00	C#CC(=O)N(c1cccc(F)c1)C(C(=O)NCc1ccccc1)c1ccc(N)cc1 (stereo not given)
≥ 7.00	C#CC(=O)N(c1ccc2c(c1)C(=O)OC2)C1(C(=O)NCc2ccccc2)CCOCC1
6.30	COc1ccc(N(C(=O)CCl)C(C(=O)NCc2ccccc2)c2cccs2)cc1Cl (stereo not given)
≥ 7.00	C#CC(=O)N(c1ccc2c(cnn2C)c1)C1(C(=O)NCc2ccccc2)CCC(=O)CC1

pEC50	Structure (SMILES)
< 5.00	C#CC(=O)N(Cc1cccc(O)c1)C1(C(=O)NCc2ccccc2)CCCC(C(=O)O)C1 (stereo not given)
< 5.00	C#CC(=O)N(c1ccc(O)cc1)C(C(=O)NC(C)(C)C)c1ccc(N)cc1 (stereo not given)
≥ 7.00	C#CC(=O)N(c1cccc(Cl)c1)C(C(=O)NCc1ccccc1)c1cccs1 (stereo not given)
≥ 7.00	C#CC(=O)N(c1ccccc1N1CCOCC1)C1(C(=O)NCc2ccccc2)CCOCC1
7.00	C#CC(=O)N(c1cccc(-c2ccn(C)n2)c1)C1(C(=O)NCc2ccccc2)CCOCC1
≥ 7.00	C#CC(=O)N(c1cccc(Cl)c1)C(C(=O)NCC1CCOCC1)c1ccccc1 (stereo not given)
< 5.00	C#CC(=O)N(c1cccc(S(N)(=O)=O)c1)C(C(=O)NC(C)(C)C)c1ccc(N)cc1 (stereo not given)
≥ 7.00	C#CC(=O)N(c1ccc(C#N)cc1)C(C(=O)NC(C)(C)C)c1ccc(N)cc1 (stereo not given)
7.00	COc1ccc(N(C(=O)CCl)C2(C(=O)NCCc3ccccc3)CCC(F)(F)CC2)cc1Cl
≥ 7.00	C#CC(=O)N(c1cccc(Cl)c1F)C(C(=O)NCc1ccccc1)c1cccc(N)c1 (stereo not given)
7.00	C#CC(=O)N(c1cccc(C#N)c1)C(C(=O)NCc1ccccc1)c1ccc(N)cc1 (stereo not given)
6.30	O=C(CCl)N(c1cccc2nsnc12)C1(C(=O)NCCc2ccccc2)CCOCC1
≥ 7.00	C#CC(=O)N(c1cccc(Cl)c1)C1(C(=O)NCc2ccccc2)CCC(C(=O)OC)CC1 (stereo not given)
≥ 7.00	C#CC(=O)N(c1ccc(C#N)cc1)C(C(=O)NCc1ccccc1)c1ccc(N)cc1 (stereo not given)
5.70	C#CC(=O)N(c1ccc(NC(C)=O)cc1)C(C(=O)NC(C)(C)C)c1ccc(N)cc1 (stereo not given)
6.30	C#CC(=O)N(c1ccc(OC)cc1)C(C(=O)NC(C)(C)C)c1ccc(N)cc1 (stereo not given)
7.00	C#CC(=O)N(c1cccc2c1OCO2)C(C(=O)NCc1ccccc1)c1ccccc1 (stereo not given)
5.70	C#CC(=O)N(c1cccc(CO)c1)C(C(=O)NCc1ccccc1)c1ccc(N)cc1 (stereo not given)
7.00	COC(=O)c1cccc(N(C(=O)CCl)C(C(=O)NCCc2ccccc2)c2ccc([N+](=O)[O-])cc2)c1 (stereo not given)
7.00	C#CC(=O)N(c1cccc(Cl)c1)C1(C(=O)NCC(=O)NCc2ccccc2Cl)CCOCC1
< 5.00	C=C(F)C(=O)N(c1ccc(OC)c(Cl)c1)C(C(=O)NCc1ccccc1)c1cccc(N)c1 (stereo not given)
5.70	CC#CC(=O)N(c1ccc2c(cnn2C)c1)C1(C(=O)NCc2ccccc2)CCCOC1 (stereo not given)
≥ 7.00	C#CC(=O)N(c1cccc(C(=O)OC)c1)C(C(=O)NCc1ccccc1)c1ccccc1 (stereo not given)
6.30	C#CC(=O)N(c1ccc(CO)cc1)C(C(=O)NCc1ccccc1)c1ccc(N)cc1 (stereo not given)

pEC50	Structure (SMILES)
5.70	C#CC(=O)N(c1ccc(O)cc1)C(C(=O)NCc1ccccc1)c1ccc(N)cc1 (stereo not given)
≥ 7.00	C#CC(=O)N(c1ccc(OC)c(Cl)c1)C(C(=O)NCc1ccccc1)c1ccccc1 (stereo not given)
< 5.00	CC#CC(=O)N(c1ccc(Cl)c(Cl)c1)C(C(=O)NCc1ccccc1)c1ccccc1 (stereo not given)
≥ 7.00	C#CC(=O)N(c1ccc(Cl)cc1)C(C(=O)NCc1ccccc1)c1ccc(N)cc1 (stereo not given)
< 5.00	Cn1ncc2cc(N(C(=O)C(F)F)C3(C(=O)NCc4ccccc4)CCOCC3)ccc21
< 5.00	Cn1ncc2cc(N(C(=O)CCCl)C3(C(=O)NCc4ccccc4)CCOCC3)ccc21
≥ 7.00	C#CC(=O)N(c1cccc(Cl)c1)C(C(=O)NCc1ccccc1)c1ccc(F)cc1 (stereo not given)
7.00	C#CC(=O)N(c1cccc(Cl)c1F)C(C(=O)NCc1ccccc1)c1ccccc1 (stereo not given)
< 5.00	C#CC(=O)N(c1ccc(NS(C)(=O)=O)cc1)C(C(=O)NC(C)(C)C)c1cccc(N)c1 (stereo not given)
≥ 7.00	C#CC(=O)N(c1ccc(Cl)c(Cl)c1)C(C(=O)NCc1ccccc1)c1ccc(N)cc1 (stereo not given)
< 5.00	Cn1ncc2cc(N(C(=O)C3CO3)C3(C(=O)NCc4ccccc4)CCOCC3)ccc21 (stereo not given)
6.30	C#CC(=O)N(c1ccc(OC)cc1OC)C(C(=O)NCC(=O)OCC)c1cccs1 (stereo not given)
≥ 7.00	C#CC(=O)N(c1ccc2nsnc2c1)C(C(=O)NCc1ccccc1)c1ccccc1 (stereo not given)
≥ 7.00	C#CC(=O)N(c1cccc(Cl)c1)C(C(=O)NCc1ccccc1)c1ccccc1F (stereo not given)
5.70	C#CC(=O)N(c1cccc(Cl)c1)C1(C(=O)NCC(=O)N2CCCC(CO)C2)CCOCC1 (stereo not given)
7.00	COc1ccc(N(C(=O)CCl)C2(C(=O)NCc3ccccc3)CCOCC2)cc1Cl
≥ 7.00	C#CC(=O)N(c1cccc2c1CCC2=O)C1(C(=O)NCc2ccccc2)CCOCC1
5.70	C#CC(=O)N(c1ccc(O)cc1)C(C(=O)NC(C)(C)C)c1cccc(N)c1 (stereo not given)
≥ 7.00	C#CC(=O)N(c1cccc2nsnc12)C(C(=O)NCc1ccccc1)c1ccccc1 (stereo not given)
< 5.00	Cn1ncc2cc(N(C(=O)C#CCO)C3(C(=O)NCc4ccccc4)CCOCC3)ccc21
7.00	C#CC(=O)N(c1ccc2c(c1)OCO2)C1(C(=O)NCc2ccccc2)CCOCC1
≥ 7.00	C#CC(=O)N(c1ccc2c(cnn2C)c1)C(C(=O)NCc1ccccc1)c1ccccc1 (stereo not given)
